Tests used:
Assay type in all cases: in vivo
[1] = tested on: barnyardgrass (Echinochloa crus-galli); assay: Test A pre-/postemergence plant response; details: for Barnyardgrass plant response rating: visual injury, 0 to 100 scale (0 no effect, 100 complete control), approx. ten days
How it was run: (§1)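 Greenhouse pots of loam/sand received directed preemergence soil sprays or postemergence sprays (plants 2–10 cm, 1–2 leaf stage), compounds formulated in non-phytotoxic solvent with surfactant. Injury was rated visually versus untreated controls after about ten days on a 0 (no effect) to 100 (complete control) scale.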

[2] = tested on: corn (Zea mays); assay: Test A pre-/postemergence plant response; details: for Corn plant response rating: visual injury, 0 to 100 scale (0 no effect, 100 complete control), approx. ten days
How it was run: as §1

[3] = tested on: giant foxtail (Setaria faberii); assay: Test A pre-/postemergence plant response; details: for Foxtail, Giant plant response rating: visual injury, 0 to 100 scale (0 no effect, 100 complete control), approx. ten days
How it was run: as §1

[4] = tested on: large crabgrass (Digitaria sanguinalis); assay: Test A pre-/postemergence plant response; details: for Crabgrass, Large plant response rating: visual injury, 0 to 100 scale (0 no effect, 100 complete control), approx. ten days
How it was run: as §1

[5] = tested on: morningglory (Ipomoea spp.); assay: Test A pre-/postemergence plant response; details: for Morningglory plant response rating: visual injury, 0 to 100 scale (0 no effect, 100 complete control), approx. ten days
How it was run: as §1

[6] = tested on: pigweed (Amaranthus retroflexus); assay: Test A pre-/postemergence plant response; details: for Pigweed plant response rating: visual injury, 0 to 100 scale (0 no effect, 100 complete control), approx. ten days
How it was run: as §1

[7] = tested on: velvetleaf (Abutilon theophrasti); assay: Test A pre-/postemergence plant response; details: for Velvetleaf plant response rating: visual injury, 0 to 100 scale (0 no effect, 100 complete control), approx. ten days
How it was run: as §1

[8] = tested on: wheat (Triticum aestivum); assay: Test A pre-/postemergence plant response; details: for Wheat plant response rating: visual injury, 0 to 100 scale (0 no effect, 100 complete control), approx. ten days
How it was run: as §1

[9] = tested on: canarygrass (Phalaris minor); assay: Test B postemergence plant response; details: Postemergence
How it was run: (§2)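 Plants at the 1- to 4-leaf stage (2 to 18 cm tall), grown in pots of peat moss/vermiculite medium with wetting agent and starter nutrients, received postemergence applications of test chemicals. After 13 to 15 days in a greenhouse, injury was rated visually against untreated controls on a 0 (no effect) to 100 (complete control) scale.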

[10] = tested on: chickweed (Stellaria media); assay: Test B postemergence plant response; details: Postemergence
How it was run: as §2

[11] = tested on: windgrass (Apera spica-venti); assay: Test B postemergence plant response; details: Postemergence
How it was run: as §2

[12] = tested on: ducksalad (Heteranthera limosa); assay: Test B flooded paddy test; details: for Plant response rating, Flood, Ducksalad: 250 g ai/ha, flooded paddy test, visual rating on 0 to 100 scale (0 no effect, 100 complete control) after 13 to 15 days; for Plant response rating, Ducksalad: Flood (flooded paddy test), 13 to 15 days; for Ducksalad plant response rating: Flood, 31 g ai/ha, scale 0 to 100 (0 no effect, 100 complete control)
How it was run: (§3)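 Rice, umbrella sedge, ducksalad and barnyardgrass were grown to the 2-leaf stage, flooded to 3 cm, and compound was applied directly to the paddy water, with that depth kept throughout. After 13 to 15 days in the greenhouse, plants were visually rated against controls on a 0 (no effect) to 100 (complete control) scale.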

[13] = tested on: rice (Oryza sativa); assay: Test B flooded paddy test; details: for Plant response rating, Flood, Rice: 250 g ai/ha, flooded paddy test, visual rating on 0 to 100 scale (0 no effect, 100 complete control) after 13 to 15 days; for Plant response rating, Rice: Flood (flooded paddy test), 13 to 15 days; for Rice plant response rating: Flood, 31 g ai/ha, scale 0 to 100 (0 no effect, 100 complete control)
How it was run: as §3

[14] = Postemergence, 125 g ai/ha, 0 to 100 scale where 0 is no effect and 100 is complete control
[15] = Preemergence, 125 g ai/ha, 0 to 100 scale, 0 = no effect, 100 = complete control
[16] = Preemergence, 500 g ai/ha, 0 to 100 scale, 0 = no effect, 100 = complete control
[17] = 31 g ai/ha, 0 to 100 scale (0 no effect, 100 complete control)
[18] = 125 g ai/ha, scale 0 to 100 (0 no effect, 100 complete control)
[19] = 250 g ai/ha, scale 0 to 100 (0 no effect, 100 complete control), 13 to 15 days
[20] = 62 g ai/ha, scale of 0 to 100 where 0 is no effect and 100 is complete control
[21] = 125 g ai/ha, scale 0 to 100, 0 is no effect, 100 is complete control
[22] = 62 g ai/ha, scale 0 to 100 (0 no effect, 100 complete control)

Cc1ccc(Cl)cc1-n1c(-c2cccc(F)c2)ncc(C(=O)C2=C(O)CCCC2=O)c1=O [Compound 184]
100: Barnyardgrass plant response rating ([1]; Postemergence, 500 g ai/ha) | Foxtail, Giant plant response rating ([3]; Postemergence, 500 g ai/ha) | Crabgrass, Large plant response rating ([4]; Postemergence, 500 g ai/ha) | Plant response rating, Crabgrass, Large [4, 16] | Morningglory plant response rating ([5]; Postemergence, 500 g ai/ha) | Plant response rating, Pigweed [6, 14] | Pigweed plant response rating ([6]; Postemergence, 500 g ai/ha) | Plant response rating, Velvetleaf [7, 14] | Velvetleaf plant response rating ([7]; Postemergence, 500 g ai/ha) | Plant response rating, Velvetleaf [7, 16] | Plant response rating, Chickweed [10, 17] | Plant response rating, Chickweed [10, 18] | Plant response rating, Chickweed [10, 19] | Plant response rating, Windgrass [11, 19] | Plant response rating, Flood, Ducksalad [12] | Plant response rating, Ducksalad [12, 20] | Plant response rating, Ducksalad [12, 21]
90: Plant response rating, Barnyardgrass [1, 14] | Plant response rating, Barnyardgrass [1, 16] | Plant response rating, Foxtail, Giant [3, 14] | Plant response rating, Foxtail, Giant [3, 16] | Plant response rating, Pigweed [6, 16] | Plant response rating, Windgrass [11, 18]
0: Plant response rating, Corn [2, 15] | Plant response rating, Wheat [8, 14] | Plant response rating, Wheat [8, 15] | Plant response rating, Wheat [8, 16]
10: Plant response rating, Corn [2, 14] | Plant response rating, Morningglory [5, 15]
70: Plant response rating, Pigweed [6, 15]
95: Plant response rating, Canarygrass [9, 19] | Ducksalad plant response rating [12]
80: Corn plant response rating ([2]; Postemergence, 500 g ai/ha) | Plant response rating, Crabgrass, Large [4, 14] | Plant response rating, Velvetleaf [7, 15] | Plant response rating, Canarygrass [9, 18]
60: Plant response rating, Morningglory [5, 16] | Plant response rating, Windgrass [11, 17]
45: Plant response rating, Canarygrass [9, 17]
30: Plant response rating, Foxtail, Giant [3, 15] | Plant response rating, Crabgrass, Large [4, 15]
50: Plant response rating, Morningglory [5, 14] | Wheat plant response rating ([8]; Postemergence, 500 g ai/ha)
20: Plant response rating, Barnyardgrass [1, 15] | Plant response rating, Corn [2, 16]
15: Plant response rating, Flood, Rice [13] | Plant response rating, Rice [13, 20] | Plant response rating, Rice [13, 21] | Rice plant response rating [13]

O=C1CCCC(O)=C1C(=O)c1cnc(-c2ccc(F)cc2)n(C2CCCCC2)c1=O [Compound 197]
70: Plant response rating, Crabgrass, Large [4, 14]
98: Plant response rating, Windgrass [11, 19]
80: Plant response rating, Barnyardgrass [1, 14] | Plant response rating, Foxtail, Giant [3, 14] | Plant response rating, Ducksalad [12, 21]
40: Plant response rating, Barnyardgrass [1, 16] | Plant response rating, Velvetleaf [7, 15] | Plant response rating, Canarygrass [9, 18]
0: Plant response rating, Barnyardgrass [1, 15] | Plant response rating, Corn [2, 15] | Plant response rating, Foxtail, Giant [3, 15] | Plant response rating, Crabgrass, Large [4, 15] | Plant response rating, Morningglory [5, 15] | Plant response rating, Wheat [8, 14] | Wheat plant response rating ([8]; Postemergence, 500 g ai/ha) | Plant response rating, Wheat [8, 15] | Plant response rating, Rice [13, 20] | Rice plant response rating [13]
45: Plant response rating, Flood, Rice [13]
10: Plant response rating, Windgrass [11, 17]
90: Plant response rating, Velvetleaf [7, 16]
60: Plant response rating, Crabgrass, Large [4, 16] | Plant response rating, Morningglory [5, 16] | Plant response rating, Canarygrass [9, 19]
30: Plant response rating, Corn [2, 16] | Plant response rating, Canarygrass [9, 22] | Plant response rating, Rice [13, 21]
20: Plant response rating, Corn [2, 14] | Plant response rating, Pigweed [6, 15] | Plant response rating, Wheat [8, 16]
100: Barnyardgrass plant response rating ([1]; Postemergence, 500 g ai/ha) | Foxtail, Giant plant response rating ([3]; Postemergence, 500 g ai/ha) | Crabgrass, Large plant response rating ([4]; Postemergence, 500 g ai/ha) | Plant response rating, Morningglory [5, 14] | Morningglory plant response rating ([5]; Postemergence, 500 g ai/ha) | Plant response rating, Pigweed [6, 14] | Pigweed plant response rating ([6]; Postemergence, 500 g ai/ha) | Plant response rating, Pigweed [6, 16] | Plant response rating, Velvetleaf [7, 14] | Velvetleaf plant response rating ([7]; Postemergence, 500 g ai/ha) | Plant response rating, Chickweed [10, 17] | Plant response rating, Chickweed [10, 22] | Plant response rating, Chickweed [10, 18] | Plant response rating, Chickweed [10, 19]
85: Plant response rating, Flood, Ducksalad [12]
50: Corn plant response rating ([2]; Postemergence, 500 g ai/ha) | Plant response rating, Foxtail, Giant [3, 16] | Plant response rating, Windgrass [11, 22]
5: Plant response rating, Canarygrass [9, 17]
65: Plant response rating, Ducksalad [12, 20] | Ducksalad plant response rating [12]
